Tests used:
[1] = Acute oral toxicity, guinea pigs
[2] = tested on: Plasmodium berghei; test: Blood schizonticidal (suppressive) test, Rane mouse test, P. berghei; type: in vivo, Plasmodium berghei KBG 173 in ICR/HA Swiss mice
Text: Blood Schizonticidal Test (Mouse), University of Miami, Rane (Suppressive)
This system is based on comparisons of responses to test compounds by Plasmodium berghei KBG 173 malaria in mice as expressed in mean survival times and the mean survival times of untreated controls. Thus, compounds noted as active produce increases in the survival times of the treated animals that are significant when compared with the survival times of untreated controls. Since an established disease is less sensitive to treatment than a disease in the early stages of development, treatment is withheld until the parasitemia is relatively high in order to insure a more reliable assay of activity and the selection of appropriate compounds for intensive preclinical studies.
Utilizing young ICR/HA Swiss mice and a standard inoculum of Plasmodium berghei KBG 173, it is possible to produce a uniform disease fatal to 100% of untreated animals within 6 to 8 days with a mean survival time of 6.2 days. Test animals weigh from 18 to 22 grams but weight variations in any given experimental or control group are confined to 2-3 grams. All animals in any given test are approximately of the same age. Animals on test are housed in metal-topped plastic cages, given a standard laboratory diet and water ad libitum.
Test animals receive an intraperitoneal injection of 0.5 ml of 1:100 dilution of heparinized heart's blood with a minimum of 90% parasitized cells (4×10^7 cells), drawn from donor mice infected one week earlier with Plasmodium berghei. The donor stran is maintained by weekly passages in separate groups of mice inoculated with a 0.5 ml of 1:500 dilution of heparinized heart's blood.
Test compounds are administered after dissolution or suspension in peanut oil. A single dose is given subcutaneously 72 hours after the mice are infected with Plasmodium berghei. At this time a 10-15 percent parasitemia has developed; the disease is well established but has not produced sufficient debility to alter the response of the host to toxic effects of the drug on test. Since treatment is withheld for three days to permit the infection to become well established and death occurs in untreated controls within 6-8 days, it is believed that this system presents a candidate compound with the maximum challenge. In order to check factors such as changes in the infectivity of Plasmodium berghei or in the susceptibility of the host or to detect technical errors, a group of infected animals treated with pyrimethamine at dose levels producing definite increases in survival time is included as a positive control in every experiment.
In each experiment test compounds are administered in graded doses. […] However, if an active drug is toxic for the host, its toxicity may become a limiting factor; continued increases in dose levels also increase the toxic effects and may result in the diminution of survival times. Deaths prior to the sixth day, when untreated controls begin to die, are regarded as non-parasitic and become the basis for toxicity evaluations. Treated animals are kept under observation for 60 days. Survivors at the end of this period of time are considered as cured.
An increase of 100% in mean survival time is considered the minimum effective response for a candidate compound. In calculating mean survival time, toxic deaths and 60 day survivors are not included.
The antimalarial activity data acquired by the two test procedures described above are listed in Tables 2 and 3 for the compounds of this invention. In Table 4, the most promising compound of the series, compound 1, is compared directly with primaquine together with some additional test data for compound 1 compared to primaquine. In all the work reported herein primaquine is used in the form of the diphosphate salt. The test data are expressed in the form of the number of cures at a given dose level. […]

[3] = tested on: Plasmodium cynomolgi; test: Radical curative (tissue schizonticidal) test, SEATO, P. cynomolgi, rhesus monkey; type: in vivo, Plasmodium cynomolgi (strain B) in Indian rhesus monkeys
Method: Radical Curative Test in Rhesus Monkeys, SEATO Medical Research Laboratory, Bangkok, John Brown/Richard Andre
This test is designed to evaluate the tissue schizonticidal (radical curative) activity of test compounds. Well-conditioned Indian rhesus monkeys of either sex weighing 2-4 Kg are utilized. Plasmodium cynomolgi (strain B) sporozoites are prepared by grinding heavily infected Anopheles dirus salivary glands in 1:1 monkey serum-saline vehicle.
Monkeys are infected by I.V. injection of 10^6 freshly isolated P. cynomolgi sporozoites on day 0. A rapidly rising parasitemia develops after a 7-9 day prepatent period, and administration of the test drug is initiated when the rising parasite count exceeds 5000 per mm^3 (typically day 10-12). Test drugs are administered orally (by nasogastric intubation) once daily for 7 consecutive days in aqueous solution or, if insoluble, in suspension in 0.3% methylcellulose solution. Chloroquine diphosphate (3.1 mg/kg base/kg orally per day) is always administered concurrently with the test drug for 7 days to eliminate blood schizonts. Thus any tissue schizonticidal activity of the test drug will always be apparent even if it lacks blood schizonticidal activity.
A vehicle control monkey and a positive drug control (primaquine) monkey are included in each group of inoculated monkeys.
The effect of the test drug is determined by counting blood parasites. Parasite counts are made daily through day 20, and every two days thereafter. Initially a clearance of blood parasites is observed due to the blood schizonticidal action of chloroquine. […] If there is no relapse within 20 days of the initial clearance of parasitemia, the monkey is splenectomized and its parasitemia followed for an additional 30 days. If there is no relapse within this period, the experiment is terminated and the monkey is considered "cured".
Primaquine diphosphate cures over 90% of monkeys in this test system when administered at a dose of 1.3 mg/kg of salt per day for 7 days ([…]) in combination with chloroquine.
The antimalarial activity data acquired by the two test procedures described above are listed in Tables 2 and 3 for the compounds of this invention. In Table 4, the most promising compound of the series, compound 1, is compared directly with primaquine together with some additional test data for compound 1 compared to primaquine. In all the work reported herein primaquine is used in the form of the diphosphate salt. The test data are expressed in the form of the number of cures at a given dose level. Extension of life (mean survival time) relative to the controls is noted in the Rane mouse test; if the mean survival time is extended seven or more days, the compound is considered to be active.
The Molar Primaquine Index is useful in the radical curative test (Table II) as a gauge of the efficacy of a candidate drug relative to primaquine.

[4] = Acute oral toxicity, mice
[5] = tested on: P. cynomolgi; test: Combination drug therapy including chloroquine as suppressive adjuvant, radical curative studies; type: in vivo, P. cynomolgi in rhesus monkeys; settings: for Activity at 3.5 mg/kg (×1): primaquine with chloroquine, compound 1 without chloroquine; for Fully curative dose level: single dose, with chloroquine
[6] = 160 mg/kg × 1, s.c., five mice, Table III
[7] = 320 mg/kg × 1, s.c., five mice, Table III
[8] = 640 mg/kg × 1, s.c., five mice, Table III
[9] = 0.875 mg/kg base × 1, oral, without chloroquine
[10] = 1.75 mg/kg base × 1, oral, plus chloroquine
[11] = 3.5 mg/kg base × 1, oral, without chloroquine
[12] = 14 mg/kg base × 1, oral, without chloroquine
[13] = 3.5 mg/kg base × 1, oral, plus chloroquine
[14] = 7 mg/kg base × 1, oral, plus chloroquine

SMILES: COc1cc(NC(C)CCCN)c2nccc(C)c2c1Oc1cccc(C(F)(F)F)c1.O=C(O)CCC(=O)O (centres unmarked) [Compound 1, 8-(4-Amino-1-methylbutylamino)-6-methoxy-4-methyl-5-(3-trifluoromethylphenoxy)quinoline Succinate]
- LD50 ratio Compound 1/Primaquine ([1]; guinea pigs, male): 3.22
- Extension of survival ([2]; 5 mg/kg salt, s.c., Table IV A-1): 7 days
- Cures (60 days survival) ([2]; 5 mg/kg × 1, s.c., five mice, Table III): 1C
- Cures (60 days survival) ([2]; 10 mg/kg × 1, s.c., five mice, Table III): 3C
- Cures (60 days survival) ([2]; 20 mg/kg × 1, s.c., five mice, Table III): 5C
- Cures (60 days survival) ([2]; 40 mg/kg × 1, s.c., five mice, Table III): 5C
- Cures (60 days survival) ([2]; 80 mg/kg × 1, s.c., five mice, Table III): 5C
- Cures (60 days survival) [2, 6]: 5C
- Cures (60 days survival) [2, 7]: 5C
- Toxic deaths ([2]; 640 mg/kg salt, s.c., Table IV A-1): 4T
- Cures (60 days survival) [2, 8]: 1C
- Toxic [2, 8]: 4T
- minimal effective dose ([2]; Plasmodium berghei, sc, single dose, read-out: Curative dose, suppressive test): 10 mg/kg
- % curative (radical curative) ([3]; 0.316 mg/kg/day): 100%
- Radical curative activity relative to primaquine ([3]; in words): markedly superior to primaquine
- Molar Primaquine Index CD 100 ([3]; primaquine CD100 dose / drug CD100 dose, in moles): 4.8
- LD50 ratio Compound 1/Primaquine ([4]; mice, male): 1.59
- Relapse ([5]; 0.4375 mg/kg base × 1, oral, plus chloroquine): 4R
- Relapse ([5]; 0.4375 mg/kg base × 1, oral, without chloroquine): 4R
- Cure ([5]; 0.875 mg/kg base × 1, oral, plus chloroquine): 4C
- Relapse [5, 9]: 1R
- Suppressive failure [5, 9]: 3SF
- Cure [5, 10]: 2C
- Suppressive failure ([5]; 1.75 mg/kg base × 1, oral, without chloroquine): 4SF
- Cure [5, 11]: 1C
- Suppressive failure [5, 11]: 1SF
- Cure ([5]; 7 mg/kg base × 1, oral, without chloroquine): 2C
- Cure [5, 12]: 1C
- Suppressive failure [5, 12]: 1SF
- Activity at 3.5 mg/kg (×1) [5]: equally active
- Fully curative dose level [5]: 0.875 mg/kg
- Molar Primaquine Index ([5]; with chloroquine co-administration): 19

SMILES: COc1cc(NC(C)CCCN)c2ncccc2c1 (centres unmarked) [Primaquine Diphosphate, 8-((4-amino-1-methylbutyl)amino)-6-methoxy-quinoline, reference compound]
- LD50 ([1]; guinea pig, in vivo, po): 54 mg/kg
- Extension of survival relative to controls ([2]; 80 mg/kg × 1, s.c., Table III): 9 days
- Extension of survival ([2]; 160 mg/kg salt, s.c., Table IV A-1): 9 days
- Extension of survival relative to controls ([2]; 160 mg/kg × 1, s.c., Table III): 9 days
- Suppressive activity (active/inactive) [2, 6]: A (Active, 7 Days or more estension of survival relative to controls.)
- Toxic [2, 6]: 2T
- Toxic [2, 7]: 5T
- Toxic [2, 8]: 5T
- Cures, Rane mouse test ([2]; all doses, s.c., Table IV A-1): No Cures
- Toxicity and curative activity, Rane mouse test ([2]; any dose level): toxic and non-curative at any dose level
- Radical curative activity ([3]; 0.316 mg/kg/day): inactive
- Radical curative test, cures ([3]; 1.0 mg/kg salt, oral, × 7 days, Table IV B-1): 1/2
- Monkeys cured ([3]; 1.3 mg/kg of salt per day for 7 days (1.0 mg/kg free base) with chloroquine): over 90%
- LD50 ([4]; mouse, in vivo, po): 148 mg/kg
- Relapse [5, 10]: 2R
- Cure [5, 13]: 2C
- Relapse [5, 13]: 1R
- Suppressive failure [5, 13]: 1SF
- Cure [5, 14]: 2C
- Relapse [5, 14]: 1R
- Suppressive failure [5, 14]: 1SF
- Cure ([5]; 14 mg/kg base × 1, oral, plus chloroquine): 2C
- Activity at 3.5 mg/kg (×1) [5]: effective although a relapse was observed in one of the four animals
- Fully curative dose level [5]: 14 mg/kg

Reference: patent US4431807A, “4-Methyl-5-(unsubstituted and substituted phenoxy)-6-methoxy-8-(aminoalkylamino)quinolines” (priority 1981, dated 1984)
